Results: patent US8354407B2 (Boehringer Ingelheim International GmbH, priority 2006, dated 2013)

Molecular target: T1, full-length human PKCα enzyme (Homo sapiens, UniProt P17252)
T1 construct: full-length human PKCα enzyme; purchased Upstate Biotechnology
Test: Assessment of PKC-α Inhibitory Activity (MALDI-TOF kinase assay)
Type: biochemical
Details: full-length human PKCα 0.12 μg/ml; ATP 45 μM; neurogranin 28-43 peptide 22 μM; 30 minute incubation at 24° C.; MALDI-TOF MS readout
Experimental: Measurement of PKCα enzyme activity is performed using full-length human PKCα enzyme (Upstate Biotechnology) at a final concentration of 0.12 μg/ml in a kinase assay buffer (0.09 mg/ml bovine serum albumin (BSA), 210 μM ethylenediaminetetraacetic acid (EDTA), 360 μM CaCl2, 1 mM Tris-HCl, pH=7.5, 0.5 mM MgCl2, 0.015 mg/ml phosphatidylserine and 0.015 mg/ml diacylglycerol). The reaction is initiated by addition of adenosine triphosphate (ATP; final concentration 45 μM) and a peptide substrate consisting of amino acids 28-43 (Ala-Ala-Lys-Ile-Gln-Ala-Ser-Phe-Arg-Gly-His-Met-Ala-Arg-Lys-Lys) of neurogranin (Promega; final concentration 22 μM). After a 30 minute incubation at 24° C. the reaction is terminated by adding 5 μL of the reaction mixture into 50 μL of MALDI matrix solution (5 mg/ml α-cyano-4-hydroxycinnamic acid in 50% Acetonitrile/H2O, 0.1% TFA, 5 mM ammonium phosphate). Two microliters of the stopped reaction mixture is transferred onto a MALDI-TOF mass spectrometer target plate.
All spectra are collected on an Applied Biosystems 4700 Proteomics Analyzer MALDI-TOF MS equipped with a Nd:YAG laser (355 nm, 3 ns pulse width, 200 Hz repetition rate) in negative ion reflector mode. The system is operated with 4700 Explorer software, version 3.0. Automated acquisition parameters are adjusted to capture and average only those individual spectra within defined success criteria. Specifically, signal intensities for the substrate peptide are set to a minimum threshold of 3000 counts and a maximum intensity of 65,000 counts. This ensured that neither null spectra nor saturated spectra are averaged into the final readout. Between 1000 and 1500 laser shots are averaged for each sample. Data are collected in triplicate from 3 successive days to capture the maximum variability related to preparation of enzyme reaction, transfer of samples to MALDI target plates, data collection, and data extraction.
The isotope cluster areas for each peptide substrate and product peaks are extracted into a Microsoft Excel worksheet from the 10×10 array of spectral data simultaneously using the automated analysis function provided within the 4700 Explore software. The isotope cluster area is defined by the software algorithm based on the molecular weight and the general elemental composition of the peptides. The percent conversion (% C) of substrate to product is calculated as the cluster area of the product (P) divided by the sum of the cluster areas of the substrate (S) and the product multiplied by 100 as represented by the following equation: […]
For dose-dependent inhibition studies, the inhibition is plotted as a % Maximal Activity (% MA). Equation one is a measure of the ratio of product to substrate then solving for the % C. However, to measure inhibition of the enzyme activity, one must measure the degree to which that activity (% C) is curtailed. Thus the dose-dependant inhibition data is plotted as % MA where the maximal activity is the % C measured in control reactions with no inhibitor as represented by the following equation: […]

Compound | IC50 [nM]
O=S(=O)(Nc1ccccc1)c1cccc(Nc2nccc(NCCCN3CCOCC3)n2)c1 | 23
O=C1CCCN1CCCNc1ccnc(Nc2cccc(Cl)c2)n1 [1-{3-[2-(3-Chlorophenylamino)-pyrimidin-4-ylamino]-propyl}-pyrrolidin-2-one] | 710
O=S(=O)(NCc1cccnc1)c1cccc(Nc2nccc(NCCCN3CCOCC3)n2)c1 [3-[4-(3-Morpholin-4-yl-propylamino)-pyrimidin-2-ylamino]-N-(pyridin-3-ylmethyl)-benzenesulfonamide] | 52
NS(=O)(=O)c1cccc(Nc2nccc(NCCCN3CCOCC3)n2)c1 [3-[4-(3-Morpholin-4-yl-propylamino)-pyrimidin-2-ylamino]-benzenesulfonamide] | 14
O=C(Nc1cccc(Cl)c1)c1cccc(Nc2nccc(NCCCN3CCCC3)n2)c1 [N-(3-Chlorophenyl)-3-[4-(3-pyrrolidin-1-yl-propylamino)-pyrimidin-2-ylamino]-benzamide] | 12
CC(C)NC(=O)c1cccc(Nc2nccc(NCCCN3CCCC3)n2)c1 [N-Isopropyl-3-[4-(3-pyrrolidin-1-yl-propylamino)-pyrimidin-2-ylamino]-benzamide] | 344
O=C(Nc1cccc(Nc2nccc(NCCCN3CCOCC3)n2)c1)c1ccccc1 [N-{3-[4-(3-Morpholin-4-yl-propylamino)-pyrimidin-2-ylamino]-phenyl}-benzamide] | 25
O=C(Nc1cccc(Nc2nccc(NCCCN3CCOCC3)n2)c1)c1cccnc1 [N-{3-[4-(3-Morpholin-4-yl-propylamino)-pyrimidin-2-ylamino]-phenyl}-nicotinamide] | 112
FC(F)(F)c1cc(Nc2nccc(NCCCN3CCOCC3)n2)cc(C(F)(F)F)c1 [N^2-(3,5-Bis-trifluoromethyl-phenyl)-N^4-(3-morpholin-4-yl-propyl)-pyrimidine-2,4-diamine] | 21
Brc1cccc(Nc2nccc(NCCCN3CCOCC3)n2)c1 [N^2-(3-Bromophenyl)-N^4-(3-morpholin-4-yl-propyl)-pyrimidine-2,4-diamine] | 1
Clc1cccc(Nc2nccc(NCC3CCNCC3)n2)c1 [N^2-(3-Chloro-phenyl)-N^4-piperidin-4-ylmethyl-pyrimidine-2,4-diamine] | 37
CN1CCCC(CNc2ccnc(Nc3cccc(Cl)c3)n2)C1 (stereo not drawn) [N^2-(3-Chlorophenyl)-N^4-(1-methylpiperidin-3-ylmethyl)-pyrimidine-2,4-diamine] | 4
CN1CCC(CNc2ccnc(Nc3cccc(Cl)c3)n2)CC1 [N^2-(3-Chlorophenyl)-N^4-(1-methylpiperidin-4-yl-methyl)-pyrimidine-2,4-diamine] | 30
Clc1cccc(Nc2nccc(NCCCN3CCOCC3)n2)c1 [N^2-(3-Chlorophenyl)-N^4-(3-morpholin-4-yl-propyl)-pyrimidine-2,4-diamine] | 2
Clc1cccc(Nc2nccc(NCCCN3CCCC3)n2)c1 [N^2-(3-Chlorophenyl)-N^4-(3-pyrrolidin-1-yl-propyl)-pyrimidine-2,4-diamine] | 3
CN1C2CCC1CC(Nc1ccnc(Nc3cccc(Cl)c3)n1)C2 (stereo not drawn) [N^2-(3-Chlorophenyl)-N^4-(8-methyl-8-azabicyclo[3.2.1]oct-3-yl)-pyrimidine-2,4-diamine] | 4
CN1CCCC1CCNc1ccnc(Nc2cccc(Cl)c2)n1 (stereo not drawn) [N^2-(3-Chlorophenyl)-N^4-[2-(1-methylpyrrolidin-2-yl)-ethyl]-pyrimidine-2,4-diamine] | 0.4
CN1CCN(CCCNc2ccnc(Nc3cccc(Cl)c3)n2)CC1 [N^2-(3-Chlorophenyl)-N^4-[3-(4-methylpiperazin-1-yl)-propyl]-pyrimidine-2,4-diamine] | 5
Clc1cccc(Nc2nccc(NCC3CNCCO3)n2)c1 (stereo not drawn) [N^2-(3-Chlorophenyl)-N^4-morpholin-2-ylmethyl-pyrimidine-2,4-diamine] | 23
Clc1cccc(Nc2nccc(NCC3CCCNC3)n2)c1 (stereo not drawn) [N^2-(3-Chlorophenyl)-N^4-piperidin-3-ylmethyl-pyrimidine-2,4-diamine] | 25

Compound | IC50 [nM]
CN1CC[C@@H](CNc2ccnc(Nc3cccc(Cl)c3)n2)C1 [N^2-(3-Chlorophenyl)-N^4-{[(3S)-1-methylpyrrolidin-3-yl]methyl}pyrimidine-2,4-diamine] | 13
CN1CC[C@H](CNc2ccnc(Nc3cccc(Cl)c3)n2)C1 [N^2-(3-Chlorophenyl)-N^4—[(3R)-1-methylpyrrolidin-3-ylmethyl]-pyrimidine-2,4-diamine] | 7
Fc1cccc(Nc2nccc(NCCCN3CCOCC3)n2)c1 [N^2-(3-Fluorophenyl)-N^4-(3-morpholin-4-yl-propyl)-pyrimidine-2,4-diamine] | 64
CC(C)c1cccc(Nc2nccc(NCCCN3CCOCC3)n2)c1 [N^2-(3-Isopropylphenyl)-N^4-(3-morpholin-4-yl-propyl)-pyrimidine-2,4-diamine] | 80
Cc1cccc(Nc2nccc(NCCCN3CCCC3)n2)c1 [N^2-(3-Methylphenyl)-N^4-(3-pyrrolidin-1-yl-propyl)-pyrimidine-2,4-diamine] | 40
O=[N+]([O-])c1cccc(Nc2nccc(NCCCN3CCOCC3)n2)c1 [N^2-(3-Nitrophenyl)-N^4-(3-morpholin-4-yl-propyl)-pyrimidine-2,4-diamine] | 1
O=[N+]([O-])c1cccc(Nc2nccc(NCCCN3CCCC3)n2)c1 [N^2-(3-Nitrophenyl)-N^4-(3-pyrrolidin-1-yl-propyl)-pyrimidine-2,4-diamine] | 2
c1ccc(Oc2cccc(Nc3nccc(NCCCN4CCOCC4)n3)c2)cc1 [N^2-(3-Phenoxyphenyl)-N^4-(3-morpholin-4-yl-propyl)-pyrimidine-2,4-diamine] | 50
Clc1cc(Nc2nccc(NCCCN3CCCC3)n2)ccc1OCc1ccccc1 [N^2-(4-(Benzyloxy)-3-chlorophenyl)-N^4-(3-pyrrolidin-1-yl-propyl)-pyrimidine-2,4-diamine] | 40
c1ccc(-c2cccc(Nc3nccc(NCCCN4CCOCC4)n3)c2)cc1 [N^2-Biphenyl-3-yl-N^4-(3-morpholin-4-yl-propyl)-pyrimidine-2,4-diamine] | 3
c1cc(Cc2cc3ccccc3[nH]2)cc(Nc2nccc(NCCCN3CCOCC3)n2)c1 [N^2-[3-(1H-Indol-2-ylmethyl)-phenyl]-N^4-(3-morpholin-4-yl-propyl)-pyrimidine-2,4-diamine] | 18
c1cc(Nc2nccc(NCCCN3CCOCC3)n2)cc(-c2cccc3[nH]ccc23)c1 [N^2-[3-(1H-Indol-4-yl)-phenyl]-N^4-(3-morpholin-4-yl-propyl)-pyrimidine-2,4-diamine] | 12
CN1CCN(S(=O)(=O)c2cccc(Nc3nccc(NCCCN4CCOCC4)n3)c2)CC1 [N^2-[3-(4-Methyl-piperazine-1-sulfonyl)phenyl]-N^4-(3-morpholin-4-ylpropyl)-pyrimidine-2,4-diamine] | 83
c1cc(Nc2nccc(NCCCN3CCOCC3)n2)cc(-c2nc3ccccc3s2)c1 [N^2-[3-(Benzo[d]thiazol-2-yl)-phenyl]-N^4-(3-morpholin-4-yl-propyl)-pyrimidine-2,4-diamine] | 40
CN(C)c1cccc(Nc2nccc(NCCCN3CCOCC3)n2)c1 [N^2-[3-(N,N-dimethylamino)-phenyl]-N^4-(3-morpholin-4-yl-propyl)-pyrimidine-2,4-diamine] | 53
c1cncc(-c2cccc(Nc3nccc(NCCCN4CCOCC4)n3)c2)c1 [N^2-[3-(Pyridin-3-yl)-phenyl]-N^4-(3-morpholin-4-yl-propyl)-pyrimidine-2,4-diamine] | 28
COc1cccc(Nc2nccc(NCCCN3CCCC3)n2)c1 [N^2-[3-Methoxyphenyl]-N^4-(3-pyrrolidin-1-yl-propyl)-pyrimidine-2,4-diamine] | 16
FC(F)(F)c1cccc(Nc2nccc(NCCCN3CCCC3)n2)c1 [N^2-[3-Trifluoromethyl-phenyl]-N^4-(3-pyrrolidin-1-yl-propyl)-pyrimidine-2,4-diamine] | 0.5
OCc1cccc(Nc2nccc(NCCCN3CCOCC3)n2)c1 [{3-[4-(3-Morpholin-4-yl-propylamino)-pyrimidin-2-ylamino]-phenyl}-methanol] | 465
